The values that follow come from patent publication US20050208511A1, “DMBT1 as a clinical marker and uses thereof” (priority 2003, published 2005).

The subject of test [1] is DMBT1. The test is described as follows: Northern analysis of DMBT1 expression in rat uterus. It counts as in vivo, Sprague Dawley rats. Particulars: for DMBT1 expression on coadministration with estrone: 70 μg/kg/day estrone + 1 mg/kg/day compound, relative to estrone alone (FIG. 3A); for DMBT1 expression increase in uterine tissue: compound alone, oral, three days, estrone 70 μg/kg/day, others 1 mg/kg/day (FIG. 2). The procedure:
(§1) Ten groups of 22-day-old female Sprague Dawley rats (three animals per group) were used to evaluate the effects of estrone, tamoxifen, raloxifene, and ICI 182780 on DMBT1 expression in the uterus. The following groups of rats were treated for three days as follows:
(§2) All treatments were delivered orally in 0.5% Methocel. After treatment the animals were euthanized and the uteri were collected, weighed, frozen in liquid nitrogen, and stored at −20° C. RNA was purified from the frozen uteri using 1.0 mL of TRIzol Reagent (Invitrogen) and a PowerGen 25 tissue homogenizer (Fisher Scientific), according to the manufacturer's instructions.
Northern analysis was performed to determine gene expression, including DMBT1 expression, in the uterus of control and treated rats. For gel electrophoresis, samples containing 2 μg of total RNA in a volume of 2 μL of water were added to 6 microliters of formaldehyde loading dye (Ambion) and incubated at 65° C. for 20 minutes. One microliter of a 0.1 mg/ml ethidium bromide solution was then added to each sample. […] The RNA was transferred to a Hybond-N membrane (Amersham) for […] by capillary transfer blotting, using 10×SSC (0.15 M Sodium citrate, pH 7.0, 1.5 M NaCl), after which the membranes were stained with ethidium bromide, destained with water, and photographed for lane loading comparison. The membranes were then air-dried and kept at room temperature until hybridization.
A glycerol stock of a bacterial clone carrying a plasmid (pINCY) containing the rat ebnerin (DMBT1) gene was obtained from Incyte Genomics (ID#: 0000101155000011). […] One colony was selected and used to inoculate 200 mL of Lennox L Broth (Sigma)+50 μg/mL ampicillin (Sigma). The liquid culture was grown overnight at 37° C. and the bacteria were collected by centrifugation. Purification of plasmid DNA was carried out using a QIAfilter plasmid maxi kit (QIAgen) according to the manufacturer's instructions.
Purified pINCY/DMBT1 was treated with the restriction enzymes EcoRI and NotI (Promega) for the preparation and isolation of a 1,174 bp DNA fragment containing the ebnerin probe (DMBT1). The products of the restriction enzyme reaction were separated by electrophoresis on a 1× TAE, 1% SeaKem Gold Agarose Reliant gel, and the band corresponding to the 1.174 kb DNA ebnerin clone was excised. The ebnerin DNA probe was purified from the gel slice using a QIAquick Gel Extraction Kit (QIAgen) according to the manufacturer's instructions. Bound DNA was eluted from the QIAgen column with 50 μL of elution buffer. The ebnerin DNA probe in the eluate was quantified by comparison to a DNA standard by gel electrophoresis. The ebnerin DNA probe was then diluted to a final concentration of 25 ng/μL.
Random-primed probe was made from 25 ng of the purified ebnerin DNA using a DECAprime II kit (Ambion) and Redivue α-^32P dATP (10 mCi/mL) (Amersham) according to the manufacturer's instructions, with the exception that the reaction was incubated for 30 minutes at 37° C. After adding EDTA to stop the reaction, the labeled probe was purified using a QIAquick Nucleotide Removal Kit (QIAgen) according to the manufacturer's instructions, with the final volume of eluted probe being 50 μL. Two microliters were counted in a scintillation counter to ensure optimal radionuclide incorporation (>2×10^6 cpm/μL).
The blot membrane as described in section A was wet in 2×SSC buffer (Sigma) for 15 minutes, then pre-hybridized in 10 mL RapidHyb (Amersham) at 65° C. for 20 minutes. The probe was boiled for 10 minutes, and 25 μL was added to 10 mL of RapidHyb, pre-warmed to 65° C. The blot membrane was added to the diluted probe solution and incubated, with rotation, in a hybridization oven for approximately 10 hours.
The membrane was removed from the probe-containing solution and rinsed twice with 2×SSPE +0.5% SDS+0.5% pyrophosphate at room temperature, and then washed once, with gentle agitation, for 30 minutes at room temperature in the same solution.

The test system of test [2] is uterus. Nature of the test: uterine weight in 22-day-old female rats. In kind it is in vivo, Sprague Dawley rats. Particulars: oral. The method, then: as §1, §2
In rats, uteri increase in size under the proliferative influence of estrogen, and this increase in size can be measured by weighing the tissues.
Administration of the treatments and collection of tissue samples were carried out according to the procedure described in Example 2. RNA was purified, blotted and hybridized to radioactively labeled rat ebnerin cDNA as in described in Example 2.

Test [3] relates to DMBT1. Nature of the test: quantitative RT-PCR of DMBT1 in uterus of ovariectomized rats. In kind it is in vivo, Wistar rats. The settings on record: OVX rats, co-treatment with ethinyl estradiol (FIG. 3B). The method, then:
Six weeks old ovariectomized Wistar rats (Charles River, Wilmington, Mass.) were dosed for either one day or six weeks with vehicle or test compounds. All treatments were delivered orally, once daily, in 0.5% methylcellulose or sesame oil. After treatment, the uteri were removed, total RNA was purified from the tissues using TRIzol reagent (Invitrogen, Carlsbad, Calif.) as directed by the manufacturer.
Quantitative reverse transcription-polymerase chain reactions (RT-PCR) of DMBT1 from rat RNA samples were carried out using a One-Step RT-PCR Master Mix Kit (Applied Biosystems, Foster City, Calif.) and an ABI Prism 7000 Sequence Detection System (Applied Biosystems), as described by the manufacturer. Commercially available primers and FAM-labeled MGB probes for human and rat DMBT1 (catalog numbers Hs00244827_ml and Rn00575705_ml, respectively) were obtained from Applied Biosystems (Foster City, Calif.). Messenger RNA levels were normalized against 18S ribosomal RNA levels determined using primers and a VIC- and TAMRA-labeled probe from the same vendor.

The subject of test [4] is endometrium. Nature of the test: average endometrial thickness in treated monkeys. It counts as in vivo, cynomolgus monkeys (Macaca fascicularis). Particulars: 19 days. An excerpt:
(§3) Adult female cynomolgus monkeys (Macaca fascicularis) were obtained from Covance Research Products. Following one complete menstrual cycle and in the follicular phase of the subsequent menstrual cycle, the animals were ovariectomized by a mid-ventral laparotomy. Ovariectomized (OVX) animals were subject to estrogen treatment after the fourth week following ovariectomy.
Animals and treatment were the same as Example 1 with the following exceptions. To study the effect of PRMs on the endometrium and gene expression, groups of three ovariectomized (OVX) monkeys were given an estrogen implant (E2), plus daily oral doses of the following PRMs for 19 days: mifepristone at 10 mg/kg/d; 17N11-DE (17β-N-substituted-11β-dimethylaminophenyl-estra-4,9-dien-3-one) 1.0, 3.0, or 10 mg/kg/d; 17N11-PE (17β-N-substituted-11β-piperidinylphenyl-estra-4,9-dien-3-one) at 1.0, 3.0, or 10 mg/kg/d. A placebo (0.5% methylcellulose) was administered as a control. 17N11-DE and 17N11-PE are two PRMs that have been described in PCT Publication No. WO 99/62928. Tissue samples were taken from endometria and myometria for histological analysis.

Test [5] deals with DMBT1. The test is described as follows: DNA microarray analysis of DMBT1 expression in endometrium of ovariectomized monkeys. Particulars: OVX monkeys, estrogen implant 19 days vs Ovx/Placebo, endometrium, microarray. It counts as in vivo, cynomolgus monkeys (Macaca fascicularis).
Source text: as §3
(§4) Following this period, the OVX monkeys were euthanized and tissue biopsies were taken from endometria of the monkeys treated with estrogen and the placebo. (Details of the endometrial features in OVX monkeys and OVX+estrogen-treated monkeys is described in Example 4.) The biopsies were placed in sterile containers, snap frozen immediately in liquid nitrogen, and stored at −80° C. until processed. Total RNA was prepared from each endometrial tissue biopsy, as described below.
Total RNA was prepared from endometrial tissue biopsies (approximately 50 mg each) using RNAzol™ (Tel-Test, Friendswood, Tex.), as follows. Two milliliters of RNAzol™ were used per 100 mg of tissue. Tissues were homogenized for 2 to 3 minutes using a Tissue Tearor homogenizer (Model No. 985-370; BioSpec Products, Bartlesville, Okla.), then transferred to a glass mortar bowl. The tissues were ground with at least 10 strokes of the pestle until a clear suspension was obtained. The homogenates were transferred to a polypropylene conical flask, to which 0.1 mL of chloroform per 1 mL of homogenate was added. The mixtures were then shaken vigorously for 1 minute. The suspensions were then transferred to a 2 mL microcentrifuge tube and centrifuged for 15. minutes at 12000 g and at 4° C. in a fixed angle rotor using a Biofuge 17R centrifuge (Baxter, Deerfield, Ill.). The aqueous phase was carefully transferred to a new microcentrifuge tube. An equal volume of isopropanol was added to the aqueous phase, mixed gently, and incubated at 4° C. for 15 minutes. RNA was pelleted by centrifuging the mixture for 15 minutes at 12000 g and at 4° C. as described above. The supernatant was removed and the pellet washed with 75% (v/v) ethanol (Pharmco Products, Brookfield, Conn.), followed by centrifugation at 7500 g for 8 minutes at 4° C. The supernatant was removed, and then the RNA pellet was air-dried briefly and resuspended in RNase-free water (Promega, Madison, Wis.). The samples were then treated with Amplification Grade RNase-free DNase I to remove any residual DNA (Invitrogen, Carlsbad, Calif.). Specifically, twenty micrograms of RNA were treated in a reaction volume of 0.1 mL, containing 1× DNase I reaction buffer and 10 units of DNase I. The reaction continued at room temperature for 15 minutes. […]

The test system of test [6] is monkey endometrium. The test is described as follows: DNA microarray gene expression profile (regulated gene identifiers) in endometrium of ovariectomized monkeys. It counts as in vivo, cynomolgus monkeys (Macaca fascicularis). The settings on record: Ovx/E2 vs Ovx/Placebo.
Source text: as §3, §4
Total RNA was prepared from endometrial tissue biopsies (approximately 50 mg each) using RNAzol™ (Tel-Test, Friendswood, Tex.), as follows. Two milliliters of RNAzol™ were used per 100 mg of tissue. Tissues were homogenized for 2 to 3 minutes using a Tissue Tearor homogenizer (Model No. 985-370; BioSpec Products, Bartlesville, Okla.), then transferred to a glass mortar bowl. The tissues were ground with at least 10 strokes of the pestle until a clear suspension was obtained. […]

Test [7] concerns luminal epithelium. The test is described as follows: luminal epithelium thickening in rat uterus sections. In kind it is in vivo, Wistar rats. The settings on record: OVX rats dosed six weeks, compared to sham and ovariectomized control; estrogen = ethinyl estradiol. The procedure: Mature, six week-old ovariectomized or sham-operated Wistar rats (Charles River) were dosed with ethinyl estradiol, tamoxifen or raloxifene for six weeks. Uteri were removed, sectioned for immunohistochemical analysis for DMBT1 expression using a polyclonal goat antibody against the human protein.
Tissues were trimmed and processed for paraffin embedding according to conventional methods. Five-micron sections were cut, mounted onto SuperFrost Plus+(Fisher Scientific, Pittsburgh, Pa.) microscopic slides and dried overnight. The protocols for routine single immunohistochemistry (IHC) have been described previously (D'Andrea et al., 2001, Biotechnic Histochem. 76:97-106). Briefly, tissue sections on microscopic slides were dewaxed and re-hydrated. Slides were microwaved for 5 min in Target buffer (Dako, Carpenturia, Calif.), cooled, placed in phosphate-buffered saline (PBS, pH 7.4) and treated with 3% (v/v) H2O2 for 10 min at room temperature. All incubations (30 min each) and washes were performed at room temperature. Normal rabbit blocking serum (Vector Labs, Burlingame, Calif.) was placed on all slides for 10 min. After a brief rinse in PBS, sections were treated with goat polyclonal DMBT1 primary antibody (1:25, Hypromatrix, Worcester, Mass.). Slides were then washed in PBS and treated with rabbit anti-goat biotinylated secondary antibodies (Vector Labs). After washing in PBS, the avidin-biotin-horseradish peroxidase complex reagent (HRP, Vector Labs) was added. All slides were washed and treated with 3,3′-diaminobenzidine (DAB, Biomeda, Foster City, Calif.) two times for 5 min each, rinsed in distilled water, and counterstained with hematoxylin.

Where [8] appears, read: estrogen-stimulated endometrium (C).

Turning to `C[C@]12CC[C@@H]3c4ccc(O)cc4C[C@@H](CCCCCCCCC[S+]([O-])CCCC(F)(F)C(F)(F)F)[C@H]3[C@@H]1CC[C@@H]2O` (some centres unmarked) [ICI 182780], the “DMBT1 expression on coadministration with estrone” value in test [1] (1 mg/kg/day) is given as “moderately lowered”; in test [1] (listed as ICI 182,780, 1 mg/kg/day) it was “inhibited”. In test [1], the “DMBT1 expression increase in uterine tissue” value is “undetectable levels”. For the same compound, the “uterine weight on co-treatment with estrone” value in test [2] (70 μg/kg/day estrone + 1 mg/kg/day compound, three days (FIG. 1)) is “approximately between that of estrone (E) and ICI 182780 (1) treatments alone”. In addition, in test [2] (compound alone, three days, estrone 70 μg/kg/day, others 1 mg/kg/day, vs control (FIG. 1)), the uterine weight result is listed as “significant decrease in uterine weight”.
In the case of `C[C@]12CC[C@@H]3c4ccc(O)cc4CC[C@H]3[C@@H]1CCC2=O` [estrone], the “DMBT1 expression increase in uterine tissue” value in test [1] is reported as ~5 fold.
Turning to `CC(=O)O[C@]1(C(C)=O)CC[C@H]2[C@@H]3C[C@H](C)C4=CC(=O)CC[C@]4(C)[C@H]3CC[C@@]21C` [medroxyprogesterone acetate], the “effect on ethinyl estradiol-induced increase in DMBT1 mRNA levels” value in test [3] is “blocked the increase in mRNA levels in a dose-dependent manner”.
For estrogen, the “Endometrial Thickness (mm)” value in test [4] (Ovx/E2/Vehicle) is listed as 3.03 mm. For the same compound, in test [4] (setting [8]), the “endometrial thickness relative to chemically castrated endometrium (B)” value is 2.5 times and the “endometrial thickness relative to ovariectomized control (A)” value is “seven to eight times thicker”. In test [5], the “expression of DMBT1 up-regulated” value came to 37 fold. In addition, in test [6], the “PR gene regulation by estrogen” value is reported as “threefold up-regulation” and the “insulin-like growth factor binding protein 3 gene regulation by estrogen” value is recorded as “tenfold down-regulation”. The “thickening of the luminal epithelium” value in test [7] is on record as “expected thickening of the luminal epithelium”.
